Like-named read-outs stand apart in the source and are kept apart here.
What was measured:
OXPHOS gene expression = assay type: cell-based, mouse; conditions: for GE-HTS (composite Z-score): normalized score vs mock-treated (DMSO) wells
cytochrome c = assay type: cell-based, mouse; conditions: for cyt c (composite Z-score): normalized score vs mock-treated (DMSO) wells
[1] = test system: cellular dehydrogenase activity; conditions: for MTT (composite Z-score): normalized score vs mock-treated (DMSO) wells
reactive oxygen species = assay type: cell-based, mouse; conditions: for ROS (composite Z-score): normalized score vs mock-treated (DMSO) wells
C2C12 myotubes = conditions: for Viability (composite Z-score): normalized score vs mock-treated (DMSO) wells
[2] = test system: mitochondrial membrane potential; assay type: cell-based, mouse; conditions: for ΔΨm (composite Z-score): normalized score vs mock-treated (DMSO) wells
nuOXPHOS transcripts = assay type: cell-based, mouse; conditions: for nucOX (composite Z-score): normalized score vs mock-treated (DMSO) wells
mtOXPHOS transcripts = assay type: cell-based, mouse; conditions: for mitoOX (composite Z-score): normalized score vs mock-treated (DMSO) wells
[3] = normalized composite Z-score vs mock-treated (DMSO) wells, Conc 20 μM
[4] = composite Z-score vs DMSO, Conc 20 μM
[5] = Table 7, C2C12 myotubes, 48 h, composite Z-score
[6] = composite Z-score vs mock-treated (DMSO) wells, Conc 20 μM
[7] = composite Z-score vs mock-treated (DMSO) wells, concentration of each compound in μM
[8] = composite Z-score vs DMSO wells, Conc 20 μM

SMILES: COc1c(CC(=O)c2cc3c(cc2O)OC(C)(C)C(O)C3)ccc2c1C=CC(C)(C)O2 (centres unmarked) [dihydromunduletone]
- GE-HTS (OXPHOS gene expression; [3]): −1.331
- cyt c (cytochrome c; [3]): −0.146
- MTT [1, 3]: −0.805
- ROS (reactive oxygen species; [3]): −0.049
- Viability (C2C12 myotubes; [3]): 1.580
- ΔΨm [2, 3]: 2.250
- nucOX (nuOXPHOS transcripts; [3]): −1.276
- mitoOX (mtOXPHOS transcripts; [3]): −1.248

SMILES: Cc1cc(=O)c2c(O)c3c(cc2o1)OCC(C)CC3 (centres unmarked) [dihydroptaeroxylin]
- GE-HTS (OXPHOS gene expression; [3]): −0.581
- cyt c (cytochrome c; [3]): 0.403
- MTT [1, 3]: −0.526
- ROS (reactive oxygen species; [3]): 0.151
- Viability (C2C12 myotubes; [3]): 0.605
- ΔΨm [2, 3]: −0.192
- nucOX (nuOXPHOS transcripts; [3]): −0.410
- mitoOX (mtOXPHOS transcripts; [3]): −0.787

SMILES: COc1ccc(-c2c(O)c3c(OC)c4c(cc3oc2=O)OC(C)(C)CC4)cc1 [dihydrorobustic acid, reference compound]
- GE-HTS (OXPHOS gene expression; [4]): −0.836
- cyt c (cytochrome c; [4]): 0.757
- MTT [1, 4]: −0.780
- ROS (reactive oxygen species; [4]): −0.115
- Viability (C2C12 myotubes; [4]): −0.721
- ΔΨm [2, 4]: 0.000
- nucOX (nuOXPHOS transcripts; [4]): −0.849
- mitoOX (mtOXPHOS transcripts; [4]): −0.701

SMILES: COc1cc2c(cc1OC)[C@@H]1C(=O)c3ccc4c(c3O[C@@H]1CO2)CC(C(C)C)O4 (some centres unmarked) [dihydrorotenone, reference compound]
- GE-HTS (OXPHOS gene expression; [4]): −2.179
- cyt c (cytochrome c; [4]): −3.153
- MTT [1, 4]: −4.020
- ROS (reactive oxygen species; [4]): −0.682
- Viability (C2C12 myotubes; [4]): 0.390
- ΔΨm [2, 4]: −0.314
- nucOX (nuOXPHOS transcripts; [4]): −2.212
- mitoOX (mtOXPHOS transcripts; [4]): −1.732

SMILES: CC(=O)O[C@@H]1c2c(ccc3ccc(=O)oc23)OC(C)(C)[C@@H]1OC(=O)CC(C)C [dihydrosamidin, reference compound]
- GE-HTS (composite Z-score) (OXPHOS gene expression; Conc 20 μM): 1.854
- cyt c (composite Z-score) (cytochrome c; Conc 20 μM): 0.147
- MTT (composite Z-score) ([1]; Conc 20 μM): −0.826
- ROS (composite Z-score) (reactive oxygen species; Conc 20 μM): 4.794
- Viability (composite Z-score) (C2C12 myotubes; Conc 20 μM): 0.476
- ΔΨm (composite Z-score) ([2]; Conc 20 μM): 0.199
- nucOX (composite Z-score) (nuOXPHOS transcripts; Conc 20 μM): 1.843
- nucOXPHOS Z (nuOXPHOS transcripts; [5]): 1.84
- mitoOX (composite Z-score) (mtOXPHOS transcripts; Conc 20 μM): 1.477
- mito-OXPHOS Z (mtOXPHOS transcripts; [5]): 1.48

SMILES: Cc1cc(=O)c2c(O)c3c(cc2o1)OC(C)(C)CC3 [dihydrospatheliachromene]
- GE-HTS (OXPHOS gene expression; [6]): −0.666
- cyt c (cytochrome c; [6]): 0.068
- MTT [1, 6]: −1.802
- ROS (reactive oxygen species; [6]): 1.483
- Viability (C2C12 myotubes; [6]): −0.538
- ΔΨm [2, 6]: −0.174
- nucOX (nuOXPHOS transcripts; [6]): −0.620
- mitoOX (mtOXPHOS transcripts; [6]): −0.569

SMILES: CC(=O)[C@H]1CC[C@H]2[C@@H]3CCC4C[C@H](O)CC[C@]4(C)[C@H]3C[C@H](O)[C@]12C (stereo partly drawn) [dihydroxy (3alpha,12alpha)pregnan-20-one]
- GE-HTS (OXPHOS gene expression; [6]): −0.928
- cyt c (cytochrome c; [6]): −0.685
- MTT [1, 6]: −1.160
- ROS (reactive oxygen species; [6]): 0.206
- Viability (C2C12 myotubes; [6]): −0.622
- ΔΨm [2, 6]: −0.540
- nucOX (nuOXPHOS transcripts; [6]): −0.972
- mitoOX (mtOXPHOS transcripts; [6]): −0.621

SMILES: COc1ccc(/C=C/C(=O)O)cc1OC [dimethylcaffeic acid]
- GE-HTS (composite Z-score) (OXPHOS gene expression; Conc 20 μM): −0.924
- cyt c (composite Z-score) (cytochrome c; Conc 20 μM): 0.804
- MTT (composite Z-score) ([1]; Conc 20 μM): −1.206
- ROS (composite Z-score) (reactive oxygen species; Conc 20 μM): −0.142
- Viability (composite Z-score) (C2C12 myotubes; Conc 20 μM): 0.147
- ΔΨm (composite Z-score) ([2]; Conc 20 μM): −0.061
- nucOX (composite Z-score) (nuOXPHOS transcripts; Conc 20 μM): −0.838
- mitoOX (composite Z-score) (mtOXPHOS transcripts; Conc 20 μM): −0.885

SMILES: COc1ccc(-c2cc(=O)c3c(OC)cc(OC)c(-c4cc(-c5cc(=O)c6c(OC)cc(OC)cc6o5)ccc4OC)c3o2)cc1 [dioonflavone]
- GE-HTS (OXPHOS gene expression; [7]): −0.471
- cyt c (cytochrome c; [7]): 0.605
- MTT [1, 7]: −0.744
- ROS (reactive oxygen species; [7]): 0.650
- Viability (C2C12 myotubes; [7]): −0.003
- ΔΨm [2, 7]: 0.208
- nucOX (nuOXPHOS transcripts; [7]): −0.204
- mitoOX (mtOXPHOS transcripts; [7]): −0.969

SMILES: C[C@@H]1CC[C@@]2(OC1)O[C@H]1C[C@H]3[C@@H]4CC=C5C[C@@H](O)CC[C@]5(C)[C@H]4CC[C@]3(C)[C@H]1[C@@H]2C [diosgenin]
- GE-HTS (OXPHOS gene expression; [4]): −0.245
- cyt c (cytochrome c; [4]): −0.679
- MTT [1, 4]: −1.597
- ROS (reactive oxygen species; [4]): 0.048
- Viability (C2C12 myotubes; [4]): −0.044
- ΔΨm [2, 4]: −0.353
- nucOX (nuOXPHOS transcripts; [4]): −0.445
- mitoOX (mtOXPHOS transcripts; [4]): 0.146

SMILES: COc1ccc(-c2cc(=O)c3c(O)cc(O)cc3o2)cc1O [diosmetin]
- GE-HTS (OXPHOS gene expression; [3]): −0.892
- cyt c (cytochrome c; [3]): −0.666
- MTT [1, 3]: −1.922
- ROS (reactive oxygen species; [3]): −0.014
- Viability (C2C12 myotubes; [3]): 0.174
- ΔΨm [2, 3]: −2.701
- nucOX (nuOXPHOS transcripts; [3]): −1.158
- mitoOX (mtOXPHOS transcripts; [3]): −0.134

SMILES: COc1ccc(-c2cc(=O)c3c(O)cc(O[C@@H]4O[C@H](CO[C@@H]5O[C@@H](C)[C@H](O)[C@@H](O)[C@H]5O)[C@@H](O)[C@H](O)[C@H]4O)cc3o2)cc1O [diosmin]
- GE-HTS (OXPHOS gene expression; [8]): −1.223
- cyt c (cytochrome c; [8]): −0.433
- MTT [1, 8]: −0.708
- ROS (reactive oxygen species; [8]): 0.321
- Viability (C2C12 myotubes; [8]): −0.712
- ΔΨm [2, 8]: −0.501
- nucOX (nuOXPHOS transcripts; [8]): −1.150
- mitoOX (mtOXPHOS transcripts; [8]): −1.147
